# Residues, ends and D or L forms follow the SMILES beside them.
# Test system: LLCMK-2 cells
# Assay: Cytotoxicity assay (TACS MTT, mitochondrial reductase activity)
# Format: cell-based, African green monkey
# Details: confluent LLCMK-2 monolayers; concentration ranges that showed viral inhibition; compared to medium only controls
# Description: The cytotoxicity of the chemistries was measured by monitoring mitochondrial reductase activity using the TACS™ MTT cell proliferation assay (R&D Systems, Inc., Minneapolis, Minn.) according to the manufacturer's instructions. Dilutions of chemistries in serum-free DMEM were added to confluent monolayers of LLCMK-2 cells in 96-well plates for 1 h at 37° C., similar to the focus forming inhibition assays, and subsequently incubated at 37° C. with 5% (v/v) CO2 for 24 h. Absorbance at 560 nm was measured using a Tecan GeniosPro plate reader (Tecan US, Durham, N.C.).
structure (smiles),measurement,value
CC[C@H](C)[C@H](NC(=O)[C@H](CC(C)C)NC(=O)[C@@H](NC(=O)[C@H](Cc1ccccc1)NC(=O)[C@H](Cc1c[nH]c2ccccc12)NC(=O)[C@@H](N)Cc1ccccc1)[C@@H](C)O)C(=O)N[C@@H](CCCCN)C(=O)N[C@H](C(=O)N[C@@H](CCC(N)=O)C(=O)N[C@@H](C)C(=O)N[C@@H](CCCCN)C(=O)N[C@@H](CCC(N)=O)C(=O)N1CCC[C@H]1C(=O)N[C@@H](C)C(=O)N[C@@H](CCCNC(=N)N)C(=O)N[C@@H](Cc1ccc(O)cc1)C(=O)N[C@@H](CCCNC(=N)N)C(=O)N[C@@H](CCCNC(=N)N)C(=O)N[C@@H](Cc1ccccc1)C(=O)N[C@@H](CS)C(=O)O)[C@@H](C)O [10AN] (H-FWFTLIKTQAKQPARYRRFC-OH),cytotoxicity (mitochondrial reductase activity of target cells),not due to toxicity

# Reference: patent publication US8637472B2, “Optimized dengue virus entry inhibitory peptide (10AN)” (University of Washington Through Its Center for …, priority 2007, dated 2014)
